Test results: patent US20220380331A1, “TREATMENT OF CONDITIONS OF THE NERVOUS SYSTEM” (priority 2019, published 2022)

Key:
[1] = system: PNN^+HEK cells; assay: Removal of PNNs in vitro in PNN+HEK cell model (WFA staining); type: cell-based, human
Description: A previously developed human embryonic kidney 293T (HEK) cell model, engineered to express the essential ECM components (hyaluronan synthase 3 (HAS-3) and HAPLN-1) required to induce the formation of a pericellular PNN-like structure (PNN^+HEK cells) (Kwok et al., 2010), was used to investigate the efficacy of PNNi in removing PNNs in vitro (FIG. 9A-I).

[2] = system: locomotor function of intact rats; assay: BBB open field locomotor testing in intact rats after ten days of oral PNNi; type: in vivo, rat; settings: short-term treatment
Description: HL locomotor ability was assessed at various time points throughout the acute SCI paradigm using the BBB HL locomotor scale. BBB testing was carried out using an open locomotor field (custom-built Perspex O-ring: diameter 80 cm, height 30 cm) where animals were placed for a duration of 4 minutes (FIG. 2). Each BBB test was simultaneously assessed by two individuals. The resulting scores were pooled and averaged for objectivity. BBB testing assesses HL motor function using a ranking scale from 0-21. Animals are ranked into three broad categories based on their BBB score: early phase (score of 0-7) presenting little to no limb movement; intermediate stage (score of 8-13) with bouts of uncoordinated stepping; and the late stage (score of 14-21) presenting with FL and HL coordination and stability (Basso et al., 1995). Following injury, BBBs were then carried out at 1 DPI to confirm injury and then weekly from 7 DPI. If animals also received rehabilitative training, BBBs were carried out beforehand.

[3] = system: spinal cord injury; assay: 8 weeks PNNi with sustained rehabilitation after spinal cord injury, hindlimb motor recovery; type: in vivo, rat; settings: terminated 2-3 weeks before end, continued rehabilitative training
Description: FIG. […]): Limiting PNNi administration alongside sustained rehabilitation allows further hindlimb (HL) motor recovery. […] Bar graph showing the percentage of animals that were able to achieve forelimb-hindlimb (FL-HL) coordination at 9 weeks post-injury (WPI) at the end of PNNi administration, 10 and 12 WPI (B). […] (For groups, n=10 and 9 for 8 week PNNi and 8 week PNNi+T, respectively. Statistics, A, C-E: two-way mixed factorial ANOVA; significance levels: *p<0.05 **p<0.01 and ***p<0.001. A, C, D: Error bars are ±SEM.) Training was comprised of distributed practice quadrupedal interval treadmill training to provide task-specific rehabilitation. The first session commenced 7 days post injury (DPI) following locomotor behavioural tests described below. Daily training consisted of 10 minutes on the treadmill, followed by a 10 minute break before a final 10 minute session on the treadmill. Rats were trained five times a week at the maximal speed that they could maintain consecutive stepping for each 10-minute session on the treadmill. In order to enhance plasticity for effective functional recovery, we administer PNNi for 8 weeks in combination with 11 weeks of rehabilitation. Limiting PNNi administration alongside sustained rehabilitation allows further hindlimb (HL) motor but not sensory recovery (FIG. 12). […]

[4] = system: rats, mice and rabbits; settings: very high doses; cited from earlier work
[5] = Nagy et al., 2015; cited from earlier work
[6] = system: rats; settings: cited from earlier work

Cc1cc(=O)oc2cc(O)ccc12 [PNNi, 4-methylumbelliferone]
WFA-positive staining removed ([1]; two days of treatment, 0.5 mM or 1.0 mM): 86.4±4.47%
staining intensity recovered, of baseline lectin binding ([1]; within three days post-treatment): 43.6±14.6%
BBB hindlimb scale score [2]: 21
hindlimb (HL) motor recovery [3]: a further HL improvement was observed
teratogenic effect [4]: does not seem to have a teratogenic effect
solubility in aqueous solution [5]: near insoluble
maximum tolerated dose ([6]; oral, rats): 6000 mg/kg
dose tolerated in rats ([6]; rat, in vivo): at least 200 mg/kg/day
mortality in the chronic study ([6]; rats, 200 mg/kg/day and 40 mg/kg/day for three months): No mortality was reported
